# Reference: ChEMBL document CHEMBL4507324 (2021)
# Experiments:
# Details in all cases: Compound concentration 100.0 nM
# [1] = test system: Tyrosine-protein kinase ABL1 (Homo sapiens), P00519 [H396P]
# [2] = test system: Tyrosine-protein kinase ABL1 (Homo sapiens), P00519 [T315I]
# [3] = biological target: Activin receptor type-1 (Homo sapiens) (UniProt Q04771)
# [4] = biological target: RAC-beta serine/threonine-protein kinase (Homo sapiens) (UniProt P31751)
# [5] = biological target: RAC-gamma serine/threonine-protein kinase (Homo sapiens) (UniProt Q9Y243)
# [6] = biological target: Mitogen-activated protein kinase kinase kinase 6 (Homo sapiens) (UniProt O95382)
# [7] = biological target: Calcium/calmodulin-dependent protein kinase type II subunit delta (Homo sapiens) (UniProt Q13557)
# [8] = biological target: Cyclin-dependent kinase 2 (Homo sapiens) (UniProt P24941)
# [9] = biological target: Cyclin-dependent kinase-like 2 (Homo sapiens) (UniProt Q92772)
# [10] = biological target: Casein kinase I isoform gamma-3 (Homo sapiens) (UniProt Q9Y6M4)
# [11] = biological target: Serine/threonine-protein kinase MRCK gamma (Homo sapiens) (UniProt Q6DT37)
# [12] = test system: Epidermal growth factor receptor (Homo sapiens), P00533 [UNDEFINED MUTATION]
# [13] = test system: Epidermal growth factor receptor (Homo sapiens), P00533 [T790M]
# [14] = biological target: Ephrin type-B receptor 1 (Homo sapiens) (UniProt P54762)
# [15] = biological target: Ephrin type-B receptor 6 (Homo sapiens) (UniProt O15197)
# [16] = biological target: Serine/threonine-protein kinase/endoribonuclease IRE1 (Homo sapiens) (UniProt O75460)
# [17] = biological target: Fibroblast growth factor receptor 1 (Homo sapiens) (UniProt P11362)
# [18] = biological target: G protein-coupled receptor kinase 3 (Homo sapiens) (UniProt P35626)
# [19] = biological target: Mitogen-activated protein kinase kinase kinase kinase 1 (Homo sapiens) (UniProt Q92918)
# [20] = biological target: Serine/threonine-protein kinase ICK (Homo sapiens) (UniProt Q9UPZ9)
# [21] = biological target: Insulin receptor-related protein (Homo sapiens) (UniProt P14616)
# [22] = biological target: Interleukin-1 receptor-associated kinase 3 (Homo sapiens) (UniProt Q9Y616)
# [23] = biological target: Mitogen-activated protein kinase 10 (Homo sapiens) (UniProt P53779)
# [24] = test system: Mast/stem cell growth factor receptor Kit (Homo sapiens), P10721 [A829P]
# [25] = test system: Mast/stem cell growth factor receptor Kit (Homo sapiens), P10721 [L576P]
# [26] = biological target: Tyrosine-protein kinase Lyn (Homo sapiens) (UniProt P07948)
# [27] = biological target: Mitogen-activated protein kinase kinase kinase 13 (Homo sapiens) (UniProt O43283)
# [28] = biological target: MAP kinase-activated protein kinase 5 (Homo sapiens) (UniProt Q8IW41)
# [29] = biological target: Mitogen-activated protein kinase kinase kinase 9 (Homo sapiens) (UniProt P80192)
# [30] = biological target: Myosin light chain kinase family member 4 (Homo sapiens) (UniProt Q86YV6)
# [31] = biological target: Cyclin-dependent kinase 16 (Homo sapiens) (UniProt Q00536)
# [32] = biological target: Phosphatidylinositol 4,5-bisphosphate 3-kinase catalytic subunit alpha isoform (Homo sapiens) (UniProt P42336)
# [33] = test system: Phosphatidylinositol 4,5-bisphosphate 3-kinase catalytic subunit alpha isoform (Homo sapiens), P42336 [E545K]
# [34] = biological target: cAMP-dependent protein kinase catalytic subunit alpha (Homo sapiens) (UniProt P17612)
# [35] = biological target: Serine/threonine-protein kinase N2 (Homo sapiens) (UniProt Q16513)
# [36] = biological target: Serine/threonine-protein kinase PknB (Mycobacterium tuberculosis) (UniProt P9WI81)
# [37] = biological target: Serine/threonine-protein kinase PLK2 (Homo sapiens) (UniProt Q9NYY3)
# [38] = biological target: Protein kinase C iota type (Homo sapiens) (UniProt P41743)
# [39] = biological target: Serine/threonine-protein kinase D3 (Homo sapiens) (UniProt O94806)
# [40] = biological target: Ribosomal protein S6 kinase alpha-1 (Homo sapiens) (UniProt Q15418)
# [41] = biological target: SNF-related serine/threonine-protein kinase (Homo sapiens) (UniProt Q9NRH2)
# [42] = biological target: SRSF protein kinase 3 (Homo sapiens) (UniProt Q9UPE1)
# [43] = biological target: Non-receptor tyrosine-protein kinase TYK2 (Homo sapiens) (UniProt P29597)
# [44] = biological target: Serine/threonine-protein kinase ULK1 (Homo sapiens) (UniProt O75385)
# [45] = biological target: Serine/threonine-protein kinase 32C (Homo sapiens) (UniProt Q86UX6)
# Chain of MAP kinase-activated protein kinase 5 (Homo sapiens) (Q8IW41 whole entry): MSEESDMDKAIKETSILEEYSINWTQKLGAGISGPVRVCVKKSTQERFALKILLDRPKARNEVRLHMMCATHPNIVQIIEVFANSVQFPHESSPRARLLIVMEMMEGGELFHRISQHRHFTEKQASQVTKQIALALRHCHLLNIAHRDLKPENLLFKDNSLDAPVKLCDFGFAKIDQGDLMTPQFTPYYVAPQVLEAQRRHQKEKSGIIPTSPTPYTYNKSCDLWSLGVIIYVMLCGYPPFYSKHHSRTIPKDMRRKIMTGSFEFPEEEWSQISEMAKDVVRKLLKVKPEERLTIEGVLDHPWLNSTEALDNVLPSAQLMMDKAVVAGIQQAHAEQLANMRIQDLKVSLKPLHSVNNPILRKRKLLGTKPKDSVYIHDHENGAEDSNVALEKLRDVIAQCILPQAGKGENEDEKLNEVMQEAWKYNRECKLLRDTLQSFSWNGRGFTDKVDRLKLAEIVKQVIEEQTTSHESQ
# Chain of RAC-gamma serine/threonine-protein kinase (Homo sapiens) (Q9Y243 whole entry): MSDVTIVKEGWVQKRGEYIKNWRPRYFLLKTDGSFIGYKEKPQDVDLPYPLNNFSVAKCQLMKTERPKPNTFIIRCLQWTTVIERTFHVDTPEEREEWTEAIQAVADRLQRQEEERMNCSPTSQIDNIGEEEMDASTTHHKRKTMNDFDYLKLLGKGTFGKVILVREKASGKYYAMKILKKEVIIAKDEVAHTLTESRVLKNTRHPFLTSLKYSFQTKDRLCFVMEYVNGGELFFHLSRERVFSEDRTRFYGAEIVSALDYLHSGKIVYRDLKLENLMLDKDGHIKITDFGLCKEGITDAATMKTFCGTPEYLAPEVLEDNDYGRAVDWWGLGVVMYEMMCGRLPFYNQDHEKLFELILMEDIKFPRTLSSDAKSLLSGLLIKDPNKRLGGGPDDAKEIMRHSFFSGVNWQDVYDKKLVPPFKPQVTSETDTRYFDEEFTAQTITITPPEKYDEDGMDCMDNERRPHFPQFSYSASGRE
# Chain of Interleukin-1 receptor-associated kinase 3 (Homo sapiens) (Q9Y616 whole entry): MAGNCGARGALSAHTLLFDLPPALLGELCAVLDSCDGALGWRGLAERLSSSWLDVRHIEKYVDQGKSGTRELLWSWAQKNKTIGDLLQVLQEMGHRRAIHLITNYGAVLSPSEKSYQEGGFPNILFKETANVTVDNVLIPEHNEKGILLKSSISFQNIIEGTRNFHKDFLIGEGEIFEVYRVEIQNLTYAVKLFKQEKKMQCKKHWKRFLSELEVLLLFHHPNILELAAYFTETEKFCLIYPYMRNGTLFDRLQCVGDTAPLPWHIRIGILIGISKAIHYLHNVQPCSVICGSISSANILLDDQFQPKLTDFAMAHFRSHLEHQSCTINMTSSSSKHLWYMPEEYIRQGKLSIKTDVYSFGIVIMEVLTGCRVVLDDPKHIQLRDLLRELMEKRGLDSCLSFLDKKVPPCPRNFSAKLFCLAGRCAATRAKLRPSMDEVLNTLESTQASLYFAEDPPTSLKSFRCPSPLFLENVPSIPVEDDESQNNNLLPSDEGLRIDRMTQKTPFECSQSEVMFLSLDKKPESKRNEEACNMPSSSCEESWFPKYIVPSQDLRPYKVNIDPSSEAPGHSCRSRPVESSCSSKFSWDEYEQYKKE
# Chain of Mitogen-activated protein kinase kinase kinase kinase 1 (Homo sapiens) (Q92918 whole entry, looked up): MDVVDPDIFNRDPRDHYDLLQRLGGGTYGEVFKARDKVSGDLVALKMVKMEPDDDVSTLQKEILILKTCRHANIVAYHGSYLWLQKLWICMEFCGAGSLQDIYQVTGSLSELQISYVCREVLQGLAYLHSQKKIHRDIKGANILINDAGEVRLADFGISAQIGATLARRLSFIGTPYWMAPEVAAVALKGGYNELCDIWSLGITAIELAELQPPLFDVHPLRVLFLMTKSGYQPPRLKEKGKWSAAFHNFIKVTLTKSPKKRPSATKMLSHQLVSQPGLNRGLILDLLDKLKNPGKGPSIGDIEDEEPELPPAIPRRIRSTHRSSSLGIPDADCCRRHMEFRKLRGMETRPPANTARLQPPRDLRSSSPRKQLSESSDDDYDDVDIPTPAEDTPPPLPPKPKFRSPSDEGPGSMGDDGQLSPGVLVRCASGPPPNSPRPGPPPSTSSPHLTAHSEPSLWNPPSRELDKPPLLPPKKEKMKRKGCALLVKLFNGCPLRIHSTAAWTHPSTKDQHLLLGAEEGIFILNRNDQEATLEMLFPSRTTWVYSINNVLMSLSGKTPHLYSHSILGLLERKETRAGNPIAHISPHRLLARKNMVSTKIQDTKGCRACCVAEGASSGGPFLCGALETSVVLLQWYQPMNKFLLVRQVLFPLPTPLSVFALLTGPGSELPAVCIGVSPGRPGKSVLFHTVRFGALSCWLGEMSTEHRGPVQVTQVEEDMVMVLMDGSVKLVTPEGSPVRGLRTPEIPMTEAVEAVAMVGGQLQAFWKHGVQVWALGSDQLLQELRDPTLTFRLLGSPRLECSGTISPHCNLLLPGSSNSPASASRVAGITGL
# Chain of Mitogen-activated protein kinase kinase kinase 6 (Homo sapiens) (O95382 whole entry): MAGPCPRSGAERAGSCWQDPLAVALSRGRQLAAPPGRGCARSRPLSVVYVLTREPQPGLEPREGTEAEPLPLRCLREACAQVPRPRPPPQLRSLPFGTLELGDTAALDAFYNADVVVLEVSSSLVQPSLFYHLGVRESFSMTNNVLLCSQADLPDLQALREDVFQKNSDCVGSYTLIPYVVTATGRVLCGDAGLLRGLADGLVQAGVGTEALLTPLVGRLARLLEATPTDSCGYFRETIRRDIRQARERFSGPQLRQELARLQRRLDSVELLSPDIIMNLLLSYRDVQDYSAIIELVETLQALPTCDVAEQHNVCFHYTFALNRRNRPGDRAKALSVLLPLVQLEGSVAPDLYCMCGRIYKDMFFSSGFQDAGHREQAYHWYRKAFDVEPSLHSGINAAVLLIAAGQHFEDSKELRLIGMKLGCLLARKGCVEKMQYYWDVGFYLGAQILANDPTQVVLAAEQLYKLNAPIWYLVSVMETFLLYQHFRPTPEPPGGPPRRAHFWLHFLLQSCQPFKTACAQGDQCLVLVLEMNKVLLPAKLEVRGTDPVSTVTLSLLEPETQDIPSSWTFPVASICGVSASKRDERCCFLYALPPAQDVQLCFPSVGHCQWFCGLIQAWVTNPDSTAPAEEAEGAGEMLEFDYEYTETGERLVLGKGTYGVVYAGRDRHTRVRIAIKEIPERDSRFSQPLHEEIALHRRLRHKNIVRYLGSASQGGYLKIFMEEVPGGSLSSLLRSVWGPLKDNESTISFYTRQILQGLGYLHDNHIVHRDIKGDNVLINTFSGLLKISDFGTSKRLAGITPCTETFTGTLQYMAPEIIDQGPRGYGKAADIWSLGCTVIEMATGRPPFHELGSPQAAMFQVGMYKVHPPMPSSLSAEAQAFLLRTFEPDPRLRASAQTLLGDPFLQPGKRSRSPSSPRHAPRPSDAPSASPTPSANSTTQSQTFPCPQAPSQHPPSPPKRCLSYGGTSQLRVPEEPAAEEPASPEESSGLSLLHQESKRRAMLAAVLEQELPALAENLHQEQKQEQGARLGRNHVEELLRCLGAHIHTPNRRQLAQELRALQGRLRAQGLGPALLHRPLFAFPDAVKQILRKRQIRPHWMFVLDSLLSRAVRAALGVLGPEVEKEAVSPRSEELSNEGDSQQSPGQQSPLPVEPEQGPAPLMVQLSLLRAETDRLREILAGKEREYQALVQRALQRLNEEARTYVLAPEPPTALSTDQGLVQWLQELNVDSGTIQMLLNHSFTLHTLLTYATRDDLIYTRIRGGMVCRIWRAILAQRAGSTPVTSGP
# Chain of Serine/threonine-protein kinase PknB (Mycobacterium tuberculosis) (P9WI81 whole entry): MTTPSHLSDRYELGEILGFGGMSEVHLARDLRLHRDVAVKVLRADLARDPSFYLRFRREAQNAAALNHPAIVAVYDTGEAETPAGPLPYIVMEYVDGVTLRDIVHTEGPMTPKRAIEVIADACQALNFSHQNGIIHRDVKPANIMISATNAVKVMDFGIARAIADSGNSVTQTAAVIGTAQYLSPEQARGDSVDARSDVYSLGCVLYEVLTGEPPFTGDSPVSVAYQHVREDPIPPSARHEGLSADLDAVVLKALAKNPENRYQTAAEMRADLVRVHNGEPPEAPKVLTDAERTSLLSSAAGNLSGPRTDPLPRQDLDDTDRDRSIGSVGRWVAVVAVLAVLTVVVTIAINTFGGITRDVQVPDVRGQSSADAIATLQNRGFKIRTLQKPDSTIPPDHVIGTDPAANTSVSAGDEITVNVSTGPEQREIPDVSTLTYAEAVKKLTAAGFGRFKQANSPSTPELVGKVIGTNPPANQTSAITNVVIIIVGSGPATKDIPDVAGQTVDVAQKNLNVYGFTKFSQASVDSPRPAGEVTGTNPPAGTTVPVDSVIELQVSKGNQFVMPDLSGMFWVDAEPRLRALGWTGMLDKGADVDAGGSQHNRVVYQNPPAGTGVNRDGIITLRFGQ
# Chain of Serine/threonine-protein kinase PLK2 (Homo sapiens) (Q9NYY3 whole entry, looked up): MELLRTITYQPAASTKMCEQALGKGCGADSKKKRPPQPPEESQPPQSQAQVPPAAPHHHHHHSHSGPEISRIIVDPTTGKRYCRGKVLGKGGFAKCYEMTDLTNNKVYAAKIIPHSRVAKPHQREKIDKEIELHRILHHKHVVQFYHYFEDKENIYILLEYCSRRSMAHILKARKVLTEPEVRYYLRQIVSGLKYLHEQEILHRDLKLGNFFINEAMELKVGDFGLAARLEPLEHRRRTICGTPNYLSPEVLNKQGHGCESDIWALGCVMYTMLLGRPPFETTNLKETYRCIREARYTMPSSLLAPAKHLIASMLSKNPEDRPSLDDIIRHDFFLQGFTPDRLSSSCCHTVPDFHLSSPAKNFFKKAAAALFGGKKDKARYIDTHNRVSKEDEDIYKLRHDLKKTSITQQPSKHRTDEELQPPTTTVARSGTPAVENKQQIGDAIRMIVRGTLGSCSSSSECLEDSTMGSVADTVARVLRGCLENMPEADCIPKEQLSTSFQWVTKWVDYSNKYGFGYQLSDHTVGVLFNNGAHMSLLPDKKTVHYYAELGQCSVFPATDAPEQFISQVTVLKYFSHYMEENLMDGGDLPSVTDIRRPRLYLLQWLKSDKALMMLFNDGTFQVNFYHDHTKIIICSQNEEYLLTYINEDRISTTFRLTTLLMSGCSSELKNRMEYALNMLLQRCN
compound,measurement,setting,value
CS(=O)(=O)N1CCCC(NC(=O)[C@H](CCC2CCCCC2)NC(=O)c2ccc(CNc3ncnc4c3nnn4-c3ccccc3)cc2)C1 (stereo not given in full) [SR-301],residual activity,[1],99%
same,residual activity,[2],100%
same,residual activity,[3],88%
same,residual activity,[4],100%
same,residual activity,[5],86%
same,residual activity,[6],100%
same,residual activity,[7],93%
same,residual activity,[8],100%
same,residual activity,[9],100%
same,residual activity,[10],100%
same,residual activity,[11],99%
same,residual activity,[12],66%
same,residual activity,[13],100%
same,residual activity,[14],100%
same,residual activity,[15],100%
same,residual activity,[16],100%
same,residual activity,[17],91%
same,residual activity,[18],100%
same,residual activity,[19],100%
same,residual activity,[20],100%
same,residual activity,[21],100%
same,residual activity,[22],100%
same,residual activity,[23],100%
same,residual activity,[24],100%
same,residual activity,[25],78%
same,residual activity,[26],96%
same,residual activity,[27],100%
same,residual activity,[28],100%
same,residual activity,[29],90%
same,residual activity,[30],100%
same,residual activity,[31],100%
same,residual activity,[32],98%
same,residual activity,[33],53%
same,residual activity,[34],100%
same,residual activity,[35],95%
same,residual activity,[36],90%
same,residual activity,[37],99%
same,residual activity,[38],100%
same,residual activity,[39],100%
same,residual activity,[40],100%
same,residual activity,[41],81%
same,residual activity,[42],100%
same,residual activity,[43],100%
same,residual activity,[44],100%
same,residual activity,[45],100%
CS(=O)(=O)N1CCCC(NC(=O)[C@H](CCC2CCCCC2)NC(=O)c2ccc(CNC(=O)c3cnc4ccccn34)cc2)C1 (stereo not given in full) [SR-302],residual activity,[1],35%
same,residual activity,[2],83%
same,residual activity,[3],70%
same,residual activity,[4],93%
same,residual activity,[5],100%
same,residual activity,[6],100%
same,residual activity,[7],84%
same,residual activity,[8],88%
same,residual activity,[9],85%
same,residual activity,[10],100%
same,residual activity,[11],98%
same,residual activity,[12],99%
same,residual activity,[13],100%
same,residual activity,[14],89%
same,residual activity,[15],98%
same,residual activity,[16],100%
same,residual activity,[17],100%
same,residual activity,[18],100%
same,residual activity,[19],95%
same,residual activity,[20],100%
same,residual activity,[21],100%
same,residual activity,[22],65%
same,residual activity,[23],85%
same,residual activity,[24],66%
same,residual activity,[25],55%
same,residual activity,[26],100%
same,residual activity,[27],74%
same,residual activity,[28],100%
same,residual activity,[29],65%
same,residual activity,[30],63%
same,residual activity,[31],100%
same,residual activity,[32],86%
same,residual activity,[33],86%
same,residual activity,[34],100%
same,residual activity,[35],100%
same,residual activity,[36],100%
same,residual activity,[37],100%
same,residual activity,[38],94%
same,residual activity,[39],90%
same,residual activity,[40],74%
same,residual activity,[41],69%
same,residual activity,[42],100%
same,residual activity,[43],86%
same,residual activity,[44],83%
same,residual activity,[45],85%
